These results are taken from US20240327387A1, “TRIAZINE DERIVATIVES FOR THE TREATMENT OF TUMOURS AND NEURODEGENERATIVE DISORDERS” (UNIVERSITA' DEGLI STUDI DI MILANO, priority 2021, published 2024).

Each structure is given as a SMILES string.

Assay [1] concerns the target T1, PD-L1 (Homo sapiens (Human), UniProt Q9NZQ7). The assay is described as follows: NMR binding assay (macromolecule-based 1D 1H NMR). The settings on record: PD-L1 10 μM, protein:ligand 1:1 and 1:10.
Target sequence in this assay (Q9NZQ7 18-134): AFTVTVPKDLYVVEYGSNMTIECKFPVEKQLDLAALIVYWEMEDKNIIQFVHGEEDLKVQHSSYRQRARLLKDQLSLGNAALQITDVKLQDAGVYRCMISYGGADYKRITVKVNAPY
In assay [2] the target is T1, PD-L1. The assay can be described thus: Differential scanning calorimetry (DSC) of PD-L1. It counts as binding. The settings on record: PD-L1 32 μM, ligand 32 μM. For orientation: Differential scanning calorimetry records heat flow against a reference as temperature is scanned.
Target sequence in this assay (Q9NZQ7 18-134): as above
Assay [3] addresses T1, PD-L1. The conditions noted are these: PD-L1 versus PD-1.
Target sequence in this assay (Q9NZQ7 19-290): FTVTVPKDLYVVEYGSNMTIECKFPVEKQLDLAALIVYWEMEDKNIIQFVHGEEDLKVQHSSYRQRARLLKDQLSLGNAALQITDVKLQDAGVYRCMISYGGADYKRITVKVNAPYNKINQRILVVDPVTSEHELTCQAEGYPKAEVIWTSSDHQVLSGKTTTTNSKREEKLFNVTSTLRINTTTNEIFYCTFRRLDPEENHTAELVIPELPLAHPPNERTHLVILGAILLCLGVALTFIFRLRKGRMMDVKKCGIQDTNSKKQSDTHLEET
For a further assay, the target named is hPD1/hPD-L1 interaction (Homo sapiens (Human), UniProt Q9NZQ7). The assay is described as follows: HTRF assay of PD-1/PD-L1 interaction. It counts as binding. In general terms: In TR-FRET formats the signal depends on donor and acceptor labels being close together.
hPD1/hPD-L1 interaction, sequence (Q9NZQ7 19-238): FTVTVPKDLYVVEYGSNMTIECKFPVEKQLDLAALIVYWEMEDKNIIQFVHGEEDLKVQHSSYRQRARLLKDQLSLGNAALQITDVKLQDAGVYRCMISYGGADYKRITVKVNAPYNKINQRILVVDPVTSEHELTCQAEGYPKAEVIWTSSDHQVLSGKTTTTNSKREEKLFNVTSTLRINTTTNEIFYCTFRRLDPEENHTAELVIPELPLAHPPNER

Take `COc1nc(OCc2cccc(-c3ccccc3)c2C)ccc1CNCCNC(C)=O` [BMS202]: the “formation of the ligand-PD-L1 complex (1D 1H NMR signal changes)” value at PD-L1 [1] was “decrease in the intensity of the free protein signals”. In addition, the “change in the Tm of the protein (ΔTm)” value on PD-L1 [2] came to 6.5 °C. Also, the “Tm of PD-L1 in the presence of ligand” value on PD-L1 [2] (no ligand Tm 46.5 (±0.5)) is recorded as 53.0 (±0.5) ° C.

A word on the IC50: it is the concentration that gives 50% inhibition. A high value points to lower potency. `CC(=O)NCCNc1ncnc(OCc2cccc(-c3ccccc3)c2C)n1` [Compound 4]: on PD-L1 [3], the specific binding result was “capable of specifically binding PD-L1 and not PD-1”. At PD-L1 [1], the “formation of the ligand-PD-L1 complex (1D 1H NMR signal changes)” value is reported as “formation of the compound 4-PD-L1 complex”. In addition, the IC50 against hPD1/hPD-L1 interaction (HTRF) stood at 0.115 µM; at hPD1/hPD-L1 interaction (HTRF, Table 1), 0.115 ± 0.024 µM.

On to `COC(=O)[C@H](CO)Nc1ncnc(OCc2cccc(-c3ccccc3)c2C)n1` [Compound 76], for which the IC50 on hPD1/hPD-L1 interaction (Table 2) worked out at 0.692 µM. In other words, the sub-micromolar range.

`Cc1c(COc2ncnc(N[C@@H](CO)C(=O)O)n2)cccc1-c1ccccc1` [Compound 77]: at hPD1/hPD-L1 interaction (Table 2), the IC50 is > 10 µM.

Regarding `CC(=O)NCCNc1ncnc(NCc2cccc(-c3ccccc3)c2C)n1` [Compound 80], the IC50 against hPD1/hPD-L1 interaction (Table 2) was > 10 µM.

With `Cc1c(CNc2ncnc(NCCNS(C)(=O)=O)n2)cccc1-c1ccccc1` [Compound 81], at hPD1/hPD-L1 interaction (Table 2), the IC50 was > 10 µM.

`COC(=O)[C@H](CO)Nc1ncnc(NCc2cccc(-c3ccccc3)c2C)n1` [Compound 82]: at hPD1/hPD-L1 interaction (Table 2), the IC50 is > 10 µM.

As for `Cc1c(CNc2ncnc(N[C@@H](CO)C(=O)O)n2)cccc1-c1ccccc1` [Compound 83], the IC50 on hPD1/hPD-L1 interaction (Table 2) was > 10 µM.

For the compound `CC(=O)NCCNc1ncnc(NCc2cccc(-c3ccc4c(c3)OCCO4)c2C)n1` [Compound 84], the IC50 against hPD1/hPD-L1 interaction (Table 2) is > 10 µM.

On to `Cc1c(CNc2ncnc(NCCNS(C)(=O)=O)n2)cccc1-c1ccc2c(c1)OCCO2` [Compound 85], for which the half-inhibitory concentration (IC50) against hPD1/hPD-L1 interaction (Table 2) is > 10 µM.
